Test results reported in the supplement of paper PMC13380429.

Columns and labels:
Conditions in all cases: 72 h
Caco-2 [1] = assay: relative viability EC50 (midpoint between 100% and the lowest measured viability); higher = less toxic
HepG2 [2] = assay: as above
U2OS [3] = assay: as above
Calu-3 [4] = assay: as above
Vero E6 [5] = assay: as above
Caco-2 [6] = assay: drug sensitivity score (DSS) for viability; higher = more toxic; extreme values may be limits of the assay
HepG2 [7] = assay: as above
U2OS [8] = assay: as above
Calu-3 [9] = assay: as above
Vero E6 [10] = assay: as above
Caco-2 [11] = assay: cell viability relative to DMSO; higher = less toxic
HepG2 [12] = assay: as above
U2OS [13] = assay: as above
Calu-3 [14] = assay: as above
Vero E6 [15] = assay: as above

Structure (SMILES) | relative viability EC50 (Caco-2 [1]) | relative viability EC50 (HepG2 [2]) | relative viability EC50 (U2OS [3]) | relative viability EC50 (Calu-3 [4]) | relative viability EC50 (Vero E6 [5]) | drug sensitivity score (Caco-2 [6]) | drug sensitivity score (HepG2 [7]) | drug sensitivity score (U2OS [8]) | drug sensitivity score (Calu-3 [9]) | drug sensitivity score (Vero E6 [10]) | cell viability (Caco-2 [11]; 1 nM) | cell viability (Caco-2 [11]; 10 nM) | cell viability (Caco-2 [11]; 100 nM) | cell viability (Caco-2 [11]; 1000 nM) | cell viability (Caco-2 [11]; 10000 nM) | cell viability (HepG2 [12]; 1 nM) | cell viability (HepG2 [12]; 10 nM) | cell viability (HepG2 [12]; 100 nM) | cell viability (HepG2 [12]; 1000 nM) | cell viability (HepG2 [12]; 10000 nM) | cell viability (U2OS [13]; 1 nM) | cell viability (U2OS [13]; 10 nM) | cell viability (U2OS [13]; 100 nM) | cell viability (U2OS [13]; 1000 nM) | cell viability (U2OS [13]; 10000 nM) | cell viability (Calu-3 [14]; 1 nM) | cell viability (Calu-3 [14]; 10 nM) | cell viability (Calu-3 [14]; 100 nM) | cell viability (Calu-3 [14]; 1000 nM) | cell viability (Calu-3 [14]; 10000 nM) | cell viability (Vero E6 [15]; 1 nM) | cell viability (Vero E6 [15]; 10 nM) | cell viability (Vero E6 [15]; 100 nM) | cell viability (Vero E6 [15]; 1000 nM) | cell viability (Vero E6 [15]; 10000 nM)
Cn1nc(-c2ccc(C(F)(F)F)cc2)nc2c(=O)n(C)c(=O)nc1-2 [walrycin-B] | 1.15 µM | 0.88 µM | 3.02 µM | 2.87 µM | 3.26 µM | 10.2 | 11.6 | 5.7 | 3 | 3.5 | 96.6% | 99.2% | 99.3% | 61.8% | 7.5% | 108% | 101% | 84.7% | 51.3% | 1.6% | 105% | 107% | 100% | 98% | 1.8% | 109% | 108% | 108% | 98% | 48.5% | 102% | 100% | 102% | 101% | 34.4%
COc1ccc2cc3[n+](cc2c1OC)CCc1cc2c(cc1-3)OCO2 [berberine] | > 10 µM | 2.23 µM | > 10 µM | > 10 µM | > 10 µM | 1.5 | 5.1 | 1.6 | 0 | 0 | 110% | 106% | 97.4% | 86.9% | 82.5% | 99.8% | 103% | 87.7% | 92.1% | 30.6% | 106% | 96.8% | 103% | 93.7% | 77.2% | 94.3% | 101% | 105% | 101% | 97.3% | 107% | 93% | 95.3% | 107% | 96.1%
CCn1ccnc1CC1COc2ccccc2O1 (stereo not given) [imiloxan] | > 10 µM | > 10 µM | > 10 µM | > 10 µM | > 10 µM | 0 | 0 | 0 | 0 | 0 | 106% | 87.6% | 92.9% | 104% | 102% | 90.6% | 91.6% | 94.5% | 93.2% | 116% | 101% | 98.4% | 99.2% | 101% | 104% | 97.9% | 98.5% | 99.7% | 107% | 94.4% | 92.5% | 99.8% | 95.9% | 90.7% | 102%
CCOC(=O)C1=C(C)NC(C)=C(C(=O)OC)[C@@H]1c1cccc([N+](=O)[O-])c1 (racemic) [nitrendipine] | > 10 µM | > 10 µM | > 10 µM | > 10 µM | > 10 µM | 0 | 0 | 0 | 0 | 0 | 81.3% | 92.4% | 96.2% | 90.2% | 82.9% | 108% | 102% | 89% | 104% | 92.7% | 98.5% | 96.9% | 98.7% | 95.4% | 95.6% | 89.5% | 92.3% | 105% | 86.5% | 87.1% | 102% | 106% | 98.5% | 105% | 103%
CC(=O)Oc1cccc(C(=O)O)c1OC(C)=O [dipyrocetyl] | > 10 µM | > 10 µM | > 10 µM | > 10 µM | > 10 µM | 0 | 0 | 0 | 0 | 0 | 99.9% | 90.2% | 100% | 97% | 92% | 96% | 95.9% | 97.8% | 89.5% | 96.9% | 103% | 96.8% | 101% | 101% | 101% | 93.8% | 92.9% | 85.2% | 99.8% | 86.8% | 101% | 105% | 103% | 99.4% | 101%
NCCC(O)(P(=O)(O)O)P(=O)(O)O [pamidronate] | > 10 µM | > 10 µM | > 10 µM | > 10 µM | > 10 µM | 0 | 0 | 0 | 0 | 0 | 87.2% | 104% | 106% | 96% | 97.2% | 106% | 105% | 97.5% | 108% | 106% | 98.7% | 101% | 95.6% | 101% | 99% | 92.7% | 111% | 100% | 98.9% | 93.8% | 100% | 94.8% | 96.2% | 97.9% | 101%
NC(N)=O [urea] | > 10 µM | > 10 µM | > 10 µM | > 10 µM | > 10 µM | 0 | 0 | 0 | 0 | 0 | 96.4% | 93.4% | 102% | 94.5% | 108% | 82.1% | 86.1% | 90.2% | 86.5% | 94.2% | 95.8% | 97.9% | 98.6% | 101% | 97.2% | 100% | 92.1% | 93.8% | 114% | 89.3% | 97.8% | 100% | 104% | 92.3% | 103%
COc1ccc(NS(=O)(=O)c2ccc(N)cc2)nn1 [sulfamethoxypyridazine] | > 10 µM | > 10 µM | > 10 µM | > 10 µM | > 10 µM | 0 | 0 | 0 | 0 | 0 | 97.9% | 99.8% | 94.8% | 101% | 98.2% | 99.7% | 114% | 110% | 97.2% | 98.8% | 99.9% | 94.3% | 97.4% | 101% | 99.7% | 93.3% | 93.5% | 100% | 97.4% | 95.6% | 103% | 100% | 97.1% | 98.6% | 104%
O=CN1CCC(C(=O)NCCN2CCC(=C3c4ccccc4C=Cc4ccccc43)CC2)CC1 [AT-1015] | > 10 µM | > 10 µM | > 10 µM | > 10 µM | > 10 µM | 0 | 0.7 | 0 | 0 | 0 | 101% | 108% | 104% | 105% | 93.8% | 104% | 99.9% | 98.2% | 102% | 77% | 96.3% | 97.4% | 94.8% | 96.8% | 91.4% | 93.2% | 103% | 89.2% | 97.7% | 88.7% | 104% | 108% | 110% | 103% | 99.8%
C=CCN1CCN(c2nc3ccccc3nc2C#N)CC1 [3-AQC] | > 10 µM | > 10 µM | > 10 µM | > 10 µM | > 10 µM | 0 | 0 | 0 | 0 | 0 | 102% | 99.9% | 103% | 101% | 95.2% | 94% | 104% | 96.6% | 97.5% | 94.2% | 100% | 101% | 101% | 97.9% | 97.1% | 94.7% | 98% | 101% | 103% | 98.1% | 94.9% | 102% | 92.6% | 104% | 108%
CC[N+](C)(CC)CCOC(=O)C(O)(c1ccccc1)C1CCCCC1 (stereo not given) [oxyphenonium] | > 10 µM | > 10 µM | > 10 µM | > 10 µM | > 10 µM | 0 | 0 | 0 | 0.1 | 0 | 88.6% | 98.4% | 88.7% | 101% | 95.6% | 90.4% | 94.1% | 98.1% | 86.2% | 99.4% | 97.8% | 100% | 98.8% | 98.3% | 96.6% | 92.9% | 106% | 97.5% | 99.2% | 87.2% | 95.9% | 97.2% | 100% | 99.4% | 96.8%
NC(=O)[C@@H]1CC[C@@H]2CN1C(=O)N2OS(=O)(=O)O [avibactam] | > 10 µM | > 10 µM | > 10 µM | > 10 µM | > 10 µM | 0 | 0 | 0 | 0 | 0 | 101% | 92.5% | 92.5% | 95.7% | 92.7% | 114% | 109% | 90.9% | 98.4% | 97.8% | 97.2% | 94.6% | 101% | 96.9% | 98.7% | 94.8% | 81.7% | 104% | 91.3% | 104% | 95% | 96.5% | 97.6% | 97.1% | 98.6%
Nc1nc(N)nc(NC2CC2)n1 [cyromazine] | > 10 µM | > 10 µM | > 10 µM | > 10 µM | > 10 µM | 0 | 0 | 0 | 0 | 0 | 99.6% | 99.8% | 108% | 95.3% | 96.1% | 96.3% | 105% | 99.8% | 95% | 104% | 94.9% | 93.4% | 97.8% | 96.7% | 103% | 105% | 92.6% | 95.7% | 84.6% | 103% | 92.8% | 98.2% | 93% | 99.1% | 109%
